Source: publication PMC2742692 (Proteins, 2009)

Biological target: CalO2 (Micromonospora echinospora, UniProt Q8KND6)
Assay: CalO2 ligand binding by UV-vis difference spectra
Parameters: species or system M. echinospora

Structure (SMILES) | Kd
CC(=O)NCCSC(=O)c1cccc(I)c1 [compound 13] | 120 µM
CC(=O)NCCSC(=O)c1ccccc1O [compound 14] | 405 ± 100 µM
CC(=O)NCCSC(=O)c1c(C)cc(O)cc1O [compound 11] | 170 ± 30 µM
